Laboratory results published in patent publication US20230099441A1, “HETEROCYCLIC COMPOUND, APPLICATION THEREOF, AND COMPOSITION CONTAINING SAME” (GenEros Biopharma Ltd., priority 2019, published 2023).

System: STAT5 Y694 phosphorylation
Assay: Protein electrophoresis and blotting of STAT5 Y694 phosphorylation in Jurkat cells stimulated with human interferon beta
Assay type: cell-based
Settings: for Example of Effect 1: Inhibiting Ability (Protein Electrophoresis and Blotting): observed pSTAT5 bands at 10 μM and 100 μM; for Inhibiting Ratio (0% for vehicle control): 1 hour pretreatment, 20 ng/ml human interferon beta 30 minutes, pSTAT5/GAPDH
Experimental: Example of Effect 1: Protein Electrophoresis and Blotting Experiment
Standard protein electrophoresis and chemiluminescence imaging equipment (Bio-Rad);
Protein lysate RIPA (Lianke Biological; Cat #WB020); Western blot transfer membrane PVDF (Millipore; Cat #IPVH00010);
Jurkat cells (ATCC American Standard Culture Center, TIB152) were cultured in a 6-well plate at a density of 1×10^6/ml with RPMI medium […] 10% fetal bovine serum in a humidified incubator at 37° C. and maintained at 5% carbon dioxide overnight. On the second day, the cells were pretreated with compounds of different concentrations (the mother liquor of the compound prepared by dimethyl sulfoxide was diluted in the medium at the required concentration) for 1 hour, and then stimulated with 20 ng/ml human interferon beta for 30 minutes, it was mixed thoroughly and then placed in an incubator at 37° C. environment. […] Then an appropriate volume of RIPA Lysis Solution was added, it was mixed well, and placed on ice for 1 hour, inverted and mixed several times in the middle. Then, the cell lysate was centrifuged at 12000 rpm at 4° C. for 10 minutes, and the supernatant was transferred to another test tube, aliquoted and stored at −20° C. until use.
An equal volume of protein lysate was mixed with an appropriate 6-fold protein loading buffer (Biyun Tian Biochemical Company P0015F), and the mixture was heated at 95 degrees for 10 minutes, after full denaturation, the protein sample was added to the polyacrylamide gel (self-made, raw material purchased from Soleibao Biotechnology Company A1010, 30% acrylamide solution), and electrophoresis was performed at the appropriate voltage for 1 hour, until the strips were fully separated. It was transferred to a polyvinylidene fluoride membrane according to standard procedures, and blocked with 5% skim milk for 1 hour, and the specified antibody was added, and it was diluted 1:1000 in 3% bovine serum albumin, and it was incubated overnight for four degrees. It was thoroughly rinsed, incubated with the secondary antibody, exposed to chemiluminescence and signals were collected. ImageJ software was used to quantify the obtained chemiluminescence results. The same area was selected, the gray values of STAT5 phosphorylation band and GAPDH band of each sample were analyzed, and the ratio of pSTAT5/GAPDH level was calculated. The value of the solvent-treated sample was 100%, and the remaining samples were converted into relative data in the same proportion, that is, the percentage corresponding to the solvent sample. […] The solvent control group was the same as the test compound group except that DMSO was used instead of the DMSO solution of the test compound. N1 (Pimozide) was a specific positive control.

Row | SMILES | Example of Effect 1: Inhibiting Ability (Protein Electrophoresis and Blotting) | Inhibiting Ratio (0% for vehicle control) (1 μM) | Inhibiting Ratio (0% for vehicle control) (10 μM) | Inhibiting Ratio (0% for vehicle control) (100 μM)
1 | O=C(Cc1ccc(C(F)(F)F)cc1)N1CCC(n2c(=O)c(=O)[nH]c3ccccc32)CC1 [GEN1-127, 1-(1-(2-(4-(trifluoromethyl)phenyl)acetyl)piperidin-4-yl)-1,4-dihydroquinoxaline-2,3-dione] | + |  |  | 
2 | CN(C)c1ccc(CC(=O)N2CCC(n3c(=O)[nH]c4ccccc43)CC2)cc1 [GEN1-097, 1-(1-(2-(4-(dimethylamino)phenyl)acetyl)piperidin-4-yl)-1H-benzo[d]imidazol-2(3H)-one] | + |  |  | 
3 | O=C(Cc1ccc(C(F)(F)F)cc1)NCC1Cc2cccc3[nH]c(=O)n(c23)C1 (stereo not drawn) [GEN1-065] | − |  |  | 
4 | O=C(Nc1ccccn1)NC1CCN(C(=O)Cc2ccc(C(F)(F)F)cc2)CC1 [GEN1-163, 1-(pyridin-2-yl)-3-(1-(2-(4-(trifluoromethyl)phenyl)acetyl)piperidin-4-yl)urea] | − |  |  | 
5 | O=C(Cc1ccc(C(F)(F)F)cc1)N1CCC(n2c(=O)[nH]c3ncccc32)CC1 [GEN1-041, 1-(1-(2-(4-(trifluoromethyl)phenyl)acetyl)piperidin-4-yl)-1H-imidazo[4,5-b]pyridine-2(3H)-one] | + |  |  | 
6 | N#CNc1nc2ccccc2n1C1CCN(C(=O)Cc2ccc(C(F)(F)F)cc2)CC1 [GEN1-061] | + |  |  | 
7 | O=C(Cc1ccc(C(F)(F)F)cc1)N1CCC(n2c(=O)[nH]c3ccncc32)CC1 [GEN1-043, 3-(1-(2-(4-(trifluoromethyl)phenyl)acetyl)piperidin-4-yl)-1H-imidazo[4,5-c]pyridin-2(3H)-one] | − |  |  | 
8 | COc1cccc2c1[nH]c(=O)n2C1CCN(C(=O)Cc2ccc(C(F)(F)F)cc2)CC1 [GEN1-003, 4-methoxy-1-(1-(2-(4-(trifluoromethyl)phenyl)acetyl)piperidin-4-yl)-1H-benzo[d]imidazole-2(3H)-one] | + | −10.8% | 22.2% | 94.1%
9 | Cc1ccc(CC(=O)N2CCC(n3c(=O)[nH]c4ccccc43)CC2)cc1 [Example X7, 1-(1-(2-(p-tolyl)acetyl)piperidin-4-yl)-1H-benzo[d]imidazole-2(3H)-one] | − | −27.9% | −13.6% | 88.5%
10 | O=C(Cn1c(=O)[nH]c2ccccc21)N1CCC(O)(c2ccc(C(F)(F)F)cc2)CC1 [GEN1-085, 1-(2-(4-hydroxy-4-(4-(trifluoromethyl)phenyl)piperidin-1-yl)-2-oxoethyl)-1H-benzo[d]imidazol-2(3H)-one] | − |  |  | 
11 | O=C(CC12CC3CC(CC(C3)C1)C2)N1CCC(n2c(=O)[nH]c3ccccc32)CC1 [GEN1-098, 1-(1-(2-(adamantan-1-yl)acetyl)piperidin-4-yl)-1H-benzo[d]imidazol-2(3H)-one] | + |  |  | 
12 | O=C(Cc1ccc(C(F)(F)F)cc1)N1CCC(n2c(=O)n(O)c3ccccc32)CC1 [GEN1-059, 1-hydroxy-3-(1-(2-(4-(trifluoromethyl)phenyl)acetyl)piperidin-4-yl)-1H-benzo[d]imidazol-2(3H)-one] | − |  |  | 
13 | O=C(O)c1ccc(CC(=O)N2CCC(n3c(=O)[nH]c4ccccc43)CC2)cc1 [Example X6, 4-(2-oxo-2-(4-(2-oxo-2,3-dihydro-1H-benzo[d]imidazol-1-yl)piperidine-1-yl)ethyl)benzoic acid] | − |  |  | 
14 | O=C(Cc1ccc(C(F)(F)F)cc1)N1CCC(n2c(=O)[nH]c3ccc(-c4ccccc4)cc32)CC1 [GEN1-090, 6-phenyl-1-(1-(2-(4-(trifluoromethyl)phenyl)acetyl)piperidin-4-yl)-1H-benzo[d]imidazol-2(3H)-one] | + |  |  | 
15 | O=C(Cc1ccc2ccccc2c1)N1CCC(n2c(=O)[nH]c3ccccc32)CC1 [GEN1-073, 1-(1-(2-(naphth-2-yl)acetyl)piperidin-4-yl)-1H-benzo[d]imidazol-2(3H)-one] | + |  |  | 
16 | O=c1[nH]c2ccccc2n1C1CCN(S(=O)(=O)Cc2ccc(C(F)(F)F)cc2)CC1 [GEN1-068, 1-(1-((4-(trifluoromethyl)benzyl)sulfonyl)piperidin-4-yl)-1H-benzo[d]imidazol-2(3H)-one] | − |  |  | 
17 | O=C(Cc1ccc(C(F)(F)F)o1)N1CCC(n2c(=O)[nH]c3ccccc32)CC1 [GEN1-078, 1-(1-(2-(5-(trifluoromethyl)furan-2-yl)acetyl)piperidin-4-yl)-1H-benzo[d]imidazol-2(3H)-one] | + |  |  | 
18 | COc1cccc2[nH]c(=O)n(C3CCN(C(=O)Cc4ccc(C(F)(F)F)cc4)CC3)c12 [GEN1-015, 7-methoxy-1-(1-(2-(4-(trifluoromethyl)phenyl)acetyl)piperidin-4-yl)-1H-benzo[d]imidazole-2(3H)-one] | + | 9.7% | 43.4% | 95.7%
19 | COc1ccc(CC(=O)N2CCC(n3c(=O)[nH]c4ccccc43)CC2)cc1 [GEN1-070, 1-(1-(2-(4-methoxyphenyl)acetyl)piperidin-4-yl)-1H-benzo[d]imidazol-2(3H)-one] | − |  |  | 
20 | O=C(CC(F)(F)F)N1CCC(n2c(=O)[nH]c3ccccc32)CC1 [Example X2, 1-(1-(3,3,3-trifluoropropionyl)piperidin-4-yl)-1H-benzo[d]imidazole-2(3H)-one] | − |  |  | 
21 | O=C(c1ccc(C(F)(F)F)cc1)N1CCC(n2c(=O)[nH]c3ccccc32)CC1 [GEN1-017, 1-(1-(4-(trifluoromethyl)benzoyl)piperidin-4-yl)-1H-benzo[d]imidazole-2(3H)-one] | − |  |  | 
22 | O=C(Cc1ccc(C(F)(F)F)cc1)N1CCC(n2c(=O)[nH]c3cnccc32)CC1 [GEN1-042, 1-(1-(2-(4-(trifluoromethyl)phenyl)acetyl)piperidin-4-yl)-1H-imidazo[4,5-c]pyridin-2(3H)-one] | + |  |  | 
23 | N#Cc1ccc2c(c1)[nH]c(=O)n2C1CCN(C(=O)Cc2ccc(C(F)(F)F)cc2)CC1 [GEN1-006, 2-oxo-1-(1-(2-(4-(trifluoromethyl)phenyl)acetyl)piperidin-4-yl)-2,3-dihydro-1H-benzo[d]imidazole-5-carbonitrile] | + | −2.8% | 35.7% | 94.8%
24 | O=C(Cc1ccc(C(F)(F)F)cc1)N1CCC(n2c(=O)[nH]c3cc(C(F)(F)F)ccc32)CC1 [GEN1-005, 5-(trifluoromethyl)-1-(1-(2-(4-(trifluoromethyl)phenyl)acetyl)piperidin-4-yl)-1H-benzo[d]imidazole-2(3H)-one] | + | 28.0% | 44.4% | 95.6%
25 | O=C(Cc1ccc(C(F)(F)F)cc1)NCc1cnc2c(c1)CC(=O)N2 [GEN1-083, N-((2-oxo-2,3-dihydro-1H-pyrrolo[2,3-b]pyridin-5-yl)methyl)-2-(4-(trifluoromethyl)phenyl)acetamide] | − |  |  | 
26 | O=C(Cc1ccc(C(F)(F)F)cc1)N[C@H]1C[C@H](n2c(=O)[nH]c3ccccc32)C1 [GEN1-025, N-((1r,3r)-3-(2-oxo-2,3-dihydro-1H-benzo[d]imidazol-1-yl)cyclobutyl)-2-(4-(trifluoromethyl)phenyl)acetamide] | − |  |  | 
27 | O=c1[nH]c2ccccc2n1-c1ccn2c(=O)cc(Cc3ccc(F)cc3)cc2c1 [Example X9, 2-(4-fluorobenzyl)-8-(2-oxo-2,3-dihydro-1H-benzo[d]imidazol-1-yl)-4H-quinazine-4-one] | + | 6.0% | 44.3% | 100.0%
